Assay results reported in patent publication US8652836B2, “Defective ribosomal products in blebs (DRibbles) and methods of use to stimulate an immune response” (Providence Health System, priority 2005, dated 2014).
Square brackets hold non-standard residues; d marks the D form. Peptide text beside a SMILES is read from it. * marks the point of attachment. Nle = CCCC[C@H](N)C(=O)O; Cbz = O=C(OCc1ccccc1)*

Tests used:
[1] = system: human 293T tumor cells expressing V-GFP-TfR-OVA fusion; test: Western blot of fusion protein with anti-GFP antibody; assay type: cell-based; conditions: for full-length and short fragments of fusion proteins: 10 mM 3-MA, 1 μM Velcade, 10 mM NH4Cl, compared to untreated control cells
Procedure: (§1) The autophagy inhibitor […] (3-MA) and the autophagy inducer rapamycin were used to modulate autophagy and observe their effect on human 293T tumor cells expressing V-GFP-TfR-OVA fusion (a peptide containing mutated ubiquitin, GFP (green fluorescent protein), the transmembrane domain of transferrin receptor and chicken ovalbumin). In addition 10 mM NH4Cl was used to inhibit lysosome mediated protein degradation. Cells expressing V-GFP-TfR-OVA were either untreated, treated with 10 mM 3-MA for 24 hours, treated with 10 mM 3-MA and 1 μM Velcade for 24 hours, 50 nM rapamycin for 24 hours, 50 nM rapamycin and 1 μM Velcade for 24 hours, 10 mM NH4Cl for 24 hours, or with 1 μM Velcade and 10 mM NH4Cl for 24 hours. Cell lysates were prepared by resuspending pelleted cells in SDS containing sample lysis buffer and subjected to western blot analysis with anti-GFP antibody.

[2] = system: 293T tumor cells expressing V-GFP-TfR-OVA; test: In vitro cross-presentation of treated tumor cells by DC to OT-I T cells (CFSE dilution); assay type: cell-based, human; conditions: tumor cells treated as in Example 2, irradiated; FIG. 3
Procedure: as §1
(§2) 293T tumor cells expressing V-GFP-TfR-OVA were treated as described in Example 2, and used as the source of antigens for cross-presentation in vitro after irradiation (15,000 rad). One million tumor cells were incubated with two million DC for 6 hours before the addition of CFSE labeled naïve T cells from OT-I transgenic mice that recognize peptides derived from OVA protein. The OT-I division as indicated by dilution of CFSE label was used as the readout.

[3] = oral administration; cited from earlier work
[4] = under refrigeration; cited from earlier work
[5] = system: 293T cell lines expressing GFP-OVA fusion proteins; test: Western blot of DRibble lysates; assay type: cell-based, human
Procedure: Lysates (10 μg) were prepared from DRibbles generated from 293T cell lines expressing different versions of GFP-OVA fusion proteins after Velcade treatment. The lysates were probed with antibodies against GFP, LC3, calrecticulin, HSP90α (cytosolic), and ubiquitin.

LC3 = test: Western blot analysis of LC-3 (autophagy marker); assay type: cell-based, human; conditions: 1 μM overnight, 293T cells
Procedure: To confirm whether Velcade induced autophagy, Western blot analysis of LC-3 was performed. LC3 is an autophagy marker; it converts from its LC3-I-nonlipidated form to the PE-conjugated form LC3-II. 293T were treated with 1 μM Velcade overnight and total cell lysates were subjected to Western blot analysis with anti-LC3 polyclonal antibody.

293T tumor cells = test: Fluorescence microscopy of GFP-OVA / GFP-LC3 transfected cells; assay type: cell-based, human; conditions: 1 μM
Procedure: 293T tumor cells were transfected with plasmids encoding Ub-M-GFP-OVA, GFP-LC3 fusion protein, or GFP-LC3 and tdTomato-Ub proteins. Transfected cells were treated with 1 μM Velcade 24 hours later. GFP-OVA or GFP-LC3 fusion proteins were used to visualize the antigens or autophagy membrane in the DRibbles using fluorescence microscopy. Co-tranfection of GFP-LC3 and tdTomato-Ub fusion plasmids was used to visualize accumulation of ubiquitinated DRiPs inside LC3 decorated DRibbles.

[6] = system: 293T cells expressing V-GFP-TfR-OVA fusion protein; test: Western blot of fusion protein after HSP90 inhibitor and Velcade; assay type: cell-based, human; conditions: 1 μM Velcade 6 hours; 10 μM 17-AAD 16 hour
[7] = system: 293T cells expressing V-GFP-TfR-OVA fusion protein; test: Cross-presentation of HSP90 inhibitor treated cells; assay type: cell-based, human; conditions: Velcade added to 17-AAD treated cells
Procedure: as §2
Cross-presentation is analyzed as described in Example 5.

RMA tumor cells = test: Priming of gag-specific CD8 T cells by RMA tumor cells, intracellular IFN-γ; assay type: in vivo, mice; conditions: RMA cells treated 5 μM 24 hours
Procedure: Seven days later, spleen cells were restimulated with either irrelevant D^b binding peptide or the dominant epitope of gag in the presence of blocker of ER/Golgi (brefeldin A) for 6 hours. The percentage of CD8 T cells produced intracellular IFN-γ was then determined by intracellular staining and flow cytometry analysis with antibodies against CD3, CD8, and IFN-γ.

F10 melanoma cells = test: Secretion of DRibbles by tumor cells treated with proteasome inhibitor (microscopy); assay type: cell-based, mouse; conditions: 5 μg/ml, 24 hours; FIG. 1A
Procedure: To prepare tumor-derived DRibbles, one T-150 flask of cultured tumor cells at about 80% confluence (about 30 million cells per flask) were treated for 24 hours with reversible proteasome inhibitor MG132 (5 μg/ml) or ALLN (5 μg/ml) to block proteasome-mediated degradation of ubiquitinated proteins. […] Culture supernatant was collected in a 50 ml conical tube 48 hours later, and whole tumor cells and large cell debris removed by a low speed centrifugation (250 g for 10 minutes) (FIG. 1B). The resulting supernatant was further centrifuged at a high speed (10,000 g for 15 minutes) to pellet DRibbles. The pellets (containing the DRibbles, see FIG. 1C) were washed once by re-suspending in PBS (20 ml) and pelleting at high speed as above. The washed pellets were resuspended in 300 μl PBS (10 μl DRibble=1 million cells) and snap frozen in liquid nitrogen and kept at −80° C. in small aliquots until use.

SMILES: Cn1cnc(=N)c2ncn([C@@H]3O[C@H](CO)[C@@H](O)[C@H]3O)c21 [3-MA, 3-methyladenosine]
- full-length and short fragments of fusion proteins ([1]; 24 hours): both full-length and short fragments of fusion proteins were increased
- cross-presentation (OT-I division, CFSE dilution) [2]: severely curtailed

SMILES: O.O=P1(N(CCCl)CCCl)NCCCO1 (stereo not shown) [Cyclophosphamide, 2-[bis(2-chloroethyl)amino]tetrahydro-2H-1,3,2 oxazaphosphorine 2-oxide monohydrate]
- bioavailability [3]: greater than 75%
- stability of reconstituted solution [4]: six

SMILES: Cl.N [NH4Cl]
- full-length and short fragments of fusion proteins ([1]; 24 hours): even greater stabilizing effect of shorter fragments
- antigen / protein level detected by Western blot ([1]; as restated with the cross-presentation results): increased protein level
- cross-presentation (OT-I division, CFSE dilution) [2]: moderate increase of cross-presentation

SMILES: CC(C)C[C@H](NC(=O)[C@H](Cc1ccccc1)NC(=O)c1cnccn1)B(O)O [Velcade, N-pyrazinecarbonyl-L-phenylalanine-L-leucineboronic acid]
- GFP-OVA fusion protein in DRibbles [5]: resulted in large amount GFP-OVA fusion protein in the DRibbles
- amount of short fragments ([1]; 1 μM Velcade in the presence of 50 nM rapamycin, 24 hours): slightly increased the amount of short fragments
- autophagy induction (LC3-I and LC3-II) (LC3): induced autophagy in 293T cells
- formation of punctate structures (293T tumor cells): led to formation of cell-associated punctate positive for GFP-OVA or GFP-LC3
- short-fragments of GFP-TfR-OVA fusion proteins [6]: dramatically increased
- DRiPs and cross-presentation [7]: rescued DRiPs but not cross-presentation

SMILES: CC(C)C[C@@H](C=O)NC(=O)[C@H](CC(C)C)NC(=O)[C@H](CC(C)C)NC(=O)OCc1ccccc1 [MG-132, carbobenzyloxy-L-leucyl-L-leucyl-L-leucinal] (Cbz-Leu-Leu-Leu-aldehyde)
- percentage of IFN-γ-producing CD8 T cells, background (RMA tumor cells; background): 0.29%
- percentage of IFN-γ-producing CD8 T cells (RMA tumor cells; spleen cells seven days later restimulated with dominant epitope of gag): 1.74%

SMILES: CCCC[C@@H](C=O)NC(=O)[C@H](CC(C)C)NC(=O)[C@H](CC(C)C)NC(C)=O [ALLN, N-Acetyl-Leu-Leu-norleucinal] (Ac-Leu-Leu-[Nle]-aldehyde)
- formation of prenuclear vacuoles and secretion of DRibbles (F10 melanoma cells): induced formation of prenuclear vacuoles and secretion of DRiPs containing blebs (DRibbles)
